Results reported in patent publication US9890103B2, “Process for the production of (meth)acrylic acid and derivatives and polymers produced therefrom” (Lucite International UK Limited, priority 2011, dated 2018).

Assays:
[1] = Extraction of acrylic and maleic acid into toluene/butanone mixtures; assay type: physicochemical; settings: 0.1M aq solution, equal volume
Description: (§1) The following experimental conditions were used unless indicated otherwise:— • 0.1M Acids • 1:1 vol:vol aq:solvent • Room Temperature • 1 minutes agitation time; 5 min settling time • Solvent is toluene unless where stated • Analysis by HPLC
In order to increase the solubility of the AA in the organic layer a higher polarity is likely to be required. The extraction of a 0.1M aq AA solution was studied with an equal volume of a mixture between toluene and butanone.

[2] = Extraction of mono- and dibasic acids from 0.1M aqueous solution into toluene or MMA/toluene mixtures; assay type: physicochemical; settings: for degree of extraction: equal volume, in %; for Fraction Transferred to Toluene: each acid 0.1M in water, equal volume of toluene
Description: as §1
Monobasic and dibasic acids likely to be present in aqueous solution following partial decomposition of mono and dicarboxylic acids expected to be found from decomposition of dibasic or tribasic acids were compared for their solubility in toluene.
Each acid, initially at 0.1M solution in water was separately tested for solubility in an equal volume of toluene.
Aqueous solutions were prepared of each of the dicarboxylic acids exemplified in comparative example 2. These were extracted with an equal volume of solvent mixtures of toluene and methyl methacrylate (MMA).
In order to compare the solubilities in the organic solvents in terms of partition coefficients each sample was converted to a partition coefficient based on the equation: [MAA]solv=K[MAA]^2aq

[3] = 2-butanone:o-xylene 75:25; reported maximum; cited from earlier work
[4] = MAA extraction into 2-butanone/o-xylene 75:25; assay type: physicochemical; settings: 2-butanone:o-xylene 75:25
Excerpt: The efficiency of MAA extraction into a mixture of 2-butanone and o-xylene in the ratio 75:25 was studied.

[5] = Concentration dependence of MAA extraction into toluene; assay type: physicochemical; settings: toluene/water, fitted to table 3 data
Description: as §1
A series of different concentrations of MAA in aqueous solution were extracted into toluene (1:1 by volume vs aqueous solution).
The fraction transferred increases with the concentration of MAA. The data from table 3 were plotted according to the equation: [MAA]tol=K[MAA]^2aq and the value K in the equation was evaluated as 14.6. The results are plotted in FIG. 1.

[6] = MAA extraction into toluene with added NaOH and added di/tricarboxylic acids; assay type: physicochemical; settings: for amount of MAA transferred into toluene: 0.1M MAA aq, equivalent volume toluene
Description: The following experimental conditions were used unless indicated otherwise:— • 0.1M Acids • 1:1 vol:vol aq:solvent • Room Temperature • 1 minutes agitation time; 5 min settling time • Solvent is toluene unless where stated • Analysis by HPLC […] The results are shown in the first two rows of table 5 […] Very similar results were obtained. […] The aqueous solution was extracted with an equal volume of toluene at room temperature.

[7] = Solvent screen: transfer of methacrylic acid from aqueous solution into organic solvents; assay type: physicochemical; settings: 0.1M MAA aq, 1:1 vol:vol, room temperature
Description: as §1
A series of solvents were tested to examine the extent of transfer of methacrylic acid from an aqueous solution using the above procedure.

[8] = Fraction of MMA in MMA/Toluene solvent mixture 0
[9] = Fraction of MMA in MMA/Toluene solvent mixture 0.1
[10] = Fraction of MMA in MMA/Toluene solvent mixture 0.2
[11] = Fraction of MMA in MMA/Toluene solvent mixture 0.3
[12] = Fraction of MMA in MMA/Toluene solvent mixture 0.4
[13] = Fraction of MMA in MMA/Toluene solvent mixture 0.5
[14] = Fraction of MMA in MMA/Toluene solvent mixture 0.6
[15] = Fraction of MMA in MMA/Toluene solvent mixture 0.7
[16] = Fraction of MMA in MMA/Toluene solvent mixture 0.8
[17] = Fraction of MMA in MMA/Toluene solvent mixture 0.9
[18] = Fraction of MMA in MMA/Toluene solvent mixture 1

degree of extraction [2, 8] | degree of extraction [2, 9] | degree of extraction [2, 10] | degree of extraction [2, 11] | degree of extraction [2, 12] | degree of extraction [2, 13] | degree of extraction [2, 14] | degree of extraction [2, 15] | degree of extraction [2, 16] | degree of extraction [2, 17] | degree of extraction [2, 18] | Fraction Transferred to Toluene [2] [%] | Structure (SMILES) | further results
 |  |  |  |  |  |  |  |  |  |  |  | C=CC(=O)O [Acrylic acid] | % extracted ([1]; 0 % Butanone in toluene): 5.01%; % extracted ([1]; 10 % Butanone in toluene): 14.57%; % extracted ([1]; 20 % Butanone in toluene): 25.26%; % extracted ([1]; 30 % Butanone in toluene): 35.45%; % extracted ([1]; 40 % Butanone in toluene): 44.14%; % extracted ([1]; 50 % Butanone in toluene): 53.47%; % extracted ([1]; 60 % Butanone in toluene): 57.31%; % extracted ([1]; 70 % Butanone in toluene): 63.39%; % extracted ([1]; 80 % Butanone in toluene): 67.47%; % extracted ([1]; 90 % Butanone in toluene): 70.04%; % extracted ([1]; 100 % Butanone): 65.56%
40.11 | 46.72 | 49.88 | 53.62 | 56.56 | 61.15 | 64.67 | 68.07 | 70.86 | 73.21 | 75.05 | 40.11 | C/C=C/C(=O)O [CT, Crotonic Acid] | 
4.21 | 4.8 | 5.14 | 6.38 | 4.82 | 5.76 | 7.32 | 19.71 | 21.47 | 23.32 | 23.9 | 4.21 | CC(C)(O)C(=O)O [HIB, Hydroxyisobutyric Acid] | 
54.4 | 58.85 | 63.01 | 67.25 | 70.31 | 74.28 | 76.77 | 79.42 | 81.42 | 83.02 | 84.28 | 54.4 | C=C(C)C(=O)O [MAA, Methacrylic Acid] | distribution coefficient for MAA, K [3]: ~7.00; MAA extracted into the organic phase [4]: roughly 80%; K in [MAA]tol=K[MAA]^2aq [5]: 14.6; MAA extraction into toluene ([6]; 0.1M MAA + 0.05M NaOH + itaconic acid to 0.1M): 44.7%; amount of MAA transferred into toluene ([6]; after addition of 0.05M sodium hydroxide): 26%; amount of MAA transferred into toluene ([6]; before NaOH addition): 48%; Average % Transfer ([7]; solvent Benzene): 50.1%; Average % Transfer ([7]; solvent Cyclohexane): 26.9%; Average % Transfer ([7]; solvent Hexane): 27.6%; Average % Transfer ([7]; solvent MMA): 84.3%; Average % Transfer ([7]; solvent Mixed Xylenes): 45.3%; Average % Transfer ([7]; solvent Pentane): 28.3%; Average % Transfer ([7]; solvent Toluene): 48.2%
0.64 | 1.72 | 4.5 | 8.26 | 13.02 | 20.56 | 27.82 | 38.06 | 47.19 | 56.33 | 63.45 | 0.64 | C/C(=C\C(=O)O)C(=O)O [MC, Mesaconic Acid] | 
 |  |  |  |  |  |  |  |  |  |  |  | O=C(O)/C=C\C(=O)O [Maleic acid] | % extracted ([1]; 0 % Butanone in toluene): 0%; % extracted ([1]; 10 % Butanone in toluene): 0.32%; % extracted ([1]; 20 % Butanone in toluene): 1.46%; % extracted ([1]; 30 % Butanone in toluene): 3.41%; % extracted ([1]; 40 % Butanone in toluene): 5.19%; % extracted ([1]; 50 % Butanone in toluene): 10.62%; % extracted ([1]; 60 % Butanone in toluene): 10.77%; % extracted ([1]; 70 % Butanone in toluene): 15.01%; % extracted ([1]; 80 % Butanone in toluene): 19.88%; % extracted ([1]; 90 % Butanone in toluene): 27.09%; % extracted ([1]; 100 % Butanone): 34.32%
0 | 0 | 0.3 | 0.7 | 1.17 | 2.07 | 3.01 | 4.17 | 5.57 | 8.05 | 10.71 | 0 | CC(=O)C(=O)O [PY, Pyruvic Acid] | 

Structure (SMILES) | degree of extraction [2, 8] | degree of extraction [2, 9] | degree of extraction [2, 10] | degree of extraction [2, 11] | degree of extraction [2, 12] | degree of extraction [2, 13] | degree of extraction [2, 14] | degree of extraction [2, 15] | degree of extraction [2, 16] | degree of extraction [2, 17] | degree of extraction [2, 18] | Fraction Transferred to Toluene [2] [%] | further results
C=C(CC(=O)O)C(=O)O [IC, Itaconic Acid] | 0 | 0 | 0.29 | 0.81 | 1.69 | 2.89 | 4.34 | 6.56 | 9.57 | 13.1 | 17.58 | 0 | 
